In this test the test system is acute hypoxia-induced pulmonary hypertension. Put plainly: Acute hypoxia-induced pulmonary hypertension in rats (mean pulmonary arterial pressure). It is filed as in vivo, rat. The protocol: Measurement of Pulmonary and Systemic Arterial Pressure
Male Sprague-Dawley rats were obtained from Charles River Breeding Laboratories (Wilmington, Mass.) at 9-10 wk of age. For pulmonary arterial pressure measurement, a closed-chest technique (1-4). Under ketamine (80 mg/kg) and xylazine (5 mg/kg) anesthesia, a small transverse cut was made in the proximal right external jugular vein through passed. The introducer was a blunted 7.5 cm, 19-gauge needle with the tip turned up 30 degrees. The Silastic catheter filled with heparinsaline solution was passed through the introducer and attached by a 25 gauge blunted needle to a pressure transducer (model CP-01, Century Technology, Inglewood, Calif.) coupled to a polygraph (model 7, Grass Instruments, Quincy, Mass.). After the introducer was placed in the right ventricular cavity, the tip was directed anteriorly. The catheter was then advanced into the pulmonary artery. Catheter position was identified by the pressure tracing. The introducer was slipped out over the catheter and removed after a typical pulmonary arterial pressure tracing was recorded. […] One day after catheterization, mean pulmonary arterial pressure (MPAP), mean systemic arterial pressure (MSAP) were recorded through the pulmonary and femora arterial catheters via transducers coupled to the polygraph. […]

For the compound `CN1CCCC[C@H]1CCc1ccccc1NC(=O)/C=C/c1ccccc1` [Iferanserin, S-2′-[2-(1-methyl-2-piperidyl)ethyl] cinnamanilide], for the setting “adult male Sprague-Dawley rats, 3 and 10 mg/kg p.o., given 45 min before normobaric hypoxia (10% O2) for 90 min”, the “effect on acute hypoxia-induced pulmonary hypertension” value was “partially inhibited”. For the setting “adult rats, within the range of 3-10 mg/kg, p.o.”, the “dose dependence of the effect on acute hypoxia-induced pulmonary hypertension” value was “no dose-dependent response”.

The values are drawn from US8324247B2, “Method for treating pulmonary arterial hypertension” (Ventrus Biosciences, Inc., priority 2009, dated 2012).
